{"source": "patent US10317393B2", "about": "“Alkynyl sugar analogs for labeling and visualization of glycoconjugates in cells” (Academia Sinica, priority 2007, dated 2019)", "format_in_all_cases": "cell-based, human", "key": {"[1]": {"tested_on": "MCF-7 cells", "test": "Confocal microscopy of fluorescently labeled glycoconjugates", "conditions": "200 micromolar Fuc or 25 micromolar ManNAc analogs, 3 days; probe 6 or 7", "procedure": "(§1) One exemplary implementation of the disclosure provides a method to visualize the localization of glycoconjugates using alkynyl sugar tagging. To visualize the localization of glycoconjugates tagged with alkynyl sugars, adherent cells are grown on slides in the presence or absence of derivatized alkynyl sugars. After a 3-day-incubation, cells attached to the slides are fixed, permeabilized, and labeled with either biotin probe 6 or fluorogenic probe 7 for fluorescent signal analysis with confocal microscopy (FIGS. 4, 5, 10A, 10B and 11). For comparison, samples are also stained with wheat germ agglutinin (WGA, a Golgi marker) and Hoechst 33342 (marker for cell nuclei).\n(§2) Human hepatocellular carcinoma cells (Hep3B) or breast adenocarcinoma cells (MCF-7) were seeded onto six-well plates (3×10^5/2 ml per well) containing glass coverslips, and were cultivated in 10% FCS/DMEM or 10% FCS/RPMI medium 1640. […]"}, "[2]": {"tested_on": "Hep3B cells", "test": "Confocal microscopy of fluorescently labeled glycoconjugates", "conditions": "200 micromolar Fuc or 25 micromolar ManNAc analogs, 3 days; probe 6 or 7", "procedure": "as §1, §2"}, "[3]": {"tested_on": "Jurkat cells", "test": "Flow cytometry of cell surface labeling with fluorogenic coumarin probe 7", "conditions": "200 micromolar Fuc analogs or 25 micromolar ManNAc analogs, 3 days", "from_the_text": "FIGS. 3A and 3B show tagging of cell surface glycans by derivatized alkynyl sugar analogs and subsequent labeling with probe 3-azido-7-hydroxycoumarin 7. Shown is flow cytometry analysis of Jurkat cells tagged with 200 micromolar derivatized alkynyl Fuc 1 shown in FIG. 3A or 25 micromolar alkynyl-derivatized ManNAc 4 shown in FIG. 3B for 3 days. The fluorescence intensity was detected after labeling with a coumarin probe 7. Filled histogram, cells treated with control sugar analog 3 or 5; open histogram, cell treated with alkynyl-derivatized sugar 1 or 4.\nRecently, another click-activated azido-derivatized fluorescent probe, based on coumarin, was reported in the literature. In one aspect of the disclosure, the fluorogenic probe, 3-azido-7-hydroxycoumarin 7, is used as the coupling partner for alkynyl tags on labeled glycoconjugates.\nJurkat cells were cultivated (2×10^6/10 ml) in RPMI medium 1640 supplemented with 10% FCS and various concentrations of peracetylated alkynyl sugars 1, 2, or 4 or native sugars 3 or 5, for 1-3 days at 37° C. […] Data were acquired by BD LSR II with FACSDiva software, and were analyzed by CellQuestPro software (BD Biosciences). Detection of fluorescent adduct with probe 7 was monitored with a 408 nm laser and a 440/40 bandpass filter for excitation and emission, respectively."}, "[4]": {"tested_on": "Jurkat cells", "test": "Cell growth analysis after treatment with sugar analogs (cell numbers counted)", "procedure": "FIGS. 1A, 1B, 1C and 1D show analysis of cells labeled with Fuc analogs. […] Jurkat cells were grown in the presence of 200 micromolar each Fuc analog for 3 days before cell numbers were counted. The data represent the percentage of treated cells vs. untreated cells (n=4).\nIt is also disclosed how treatment with exogenous Fuc analog affects cell growth rate. […] In contrast, the addition of 200 micromolar azido Fuc 2 inhibits cell growth considerably, by 65% when compared with the untreated cells. […] Such toxicity may lead to global change in expression, therefore a nontoxic probe is preferable for accurate probing of glycoconjugate expression.\n(§3) Jurkat cells were cultivated (2×10^6/10 ml) in RPMI medium 1640 supplemented with 10% FCS and various concentrations of peracetylated alkynyl sugars 1, 2, or 4 or native sugars 3 or 5, for 1-3 days at 37° C. Cells were then harvested, washed with 0.1% FCS/PBS, and resuspended (10^6 cells) in 100 microliters of click reaction solution (0.1 mM biotin probe 6 or fluorogenic probe 7/0.1 mM Tris-thiazoleamine catalyst/0.1 mM CuSO4/0.5 mM sodium ascorbate, in PBS). The reaction was incubated at room temperature for 30 min, and then the cells were washed twice with 0.1% FCS/PBS. Cells treated with biotin probe 6 were subsequently stained with fluorescein-conjugated streptavidin (0.5 microgram per sample in 50 microliters of 1% FCS/PBS) for 30 min at 4° C., and washed three times with 1% FCS/PBS. Data were acquired by BD LSR II with FACSDiva software, and were analyzed by CellQuestPro software (BD Biosciences). Detection of fluorescent adduct with probe 7 was monitored with a 408 nm laser and a 440/40 bandpass filter for excitation and emission, respectively."}, "[5]": {"tested_on": "Jurkat cells", "test": "Flow cytometry of cell surface labeling after click with biotin azide probe 6 and fluorescein-conjugated streptavidin", "procedure": "In another exemplary implementation, a method for labeling fucosylated glycoconjugates at the cell surface is disclosed. In one aspect, Jurkat cells are grown in the presence of derivatized alkynyl Fuc 1. After treatment, cells are subjected to CuAAC (click chemistry) to couple biotinylated azido probe 6 with any alkynyl Fuc-bearing glycoconjugates, and stained with fluorescein-conjugated streptavidin.\nLabeling alkynyl Fuc-bearing cell surface glycoconjugates is illustrated in FIGS. 1A, 1B, 1C and 1D. FIGS. 1A, 1B, 1C and 1D show analysis of cells tagged with Fuc analogs analyzed by monitoring fluorescence intensity with flow cytometry after labeling with a biotin azide probe 6 and staining cells with fluorescein-conjugated streptavidin. […] Without being bound by theory, incorporation of the derivatized Fuc analogs into fucosylated glycoconjugates likely occurs via the Fuc salvage pathway.\nIt is now disclosed in one exemplary implementation of the disclosure that treating cells with derivatized alkynyl ManNAc 4 results in derivatized alkyne-bearing sialyl glycoconjugates. In one aspect of the method, cells are treated with 4 at various concentrations for one to 3 days. Modified sugar analogs and probes used in this disclosure are shown in Scheme 1. Tagging of the cell surface glycoconjugates by derivatized alkynyl ManNAc is illustrated in FIGS. 2A, 2B, 2C and 2D. FIGS. 2A, 2B, 2C and 2D show analysis of cells labeled with ManNAc analogs analyzed by monitoring fluorescence intensity with flow cytometry after clicking on the biotin azide probe 6 and staining cells with fluorescein-conjugated streptavidin. […] Compared with the MFI of controls, there was significant labeling on cells treated with derivatized alkynyl ManNAc 4, even at concentrations as low as 3 micromolar (15-fold increase). […] The optimal concentration of 4 for tagging sialyl glycoconjugates falls between 25 and 50 micromolar.\nas §3"}}}
{"substance": "1,2,3,4-tetraacetyl alkynyl fucose [alkynyl Fuc 1]", "values": [{"measurement": "labeling signal by confocal microscopy", "setting": "[1]", "value": "strong punctate-labeling signal"}, {"measurement": "labeling signal by confocal microscopy", "setting": "[2]", "value": "strong punctate-labeling signal"}, {"measurement": "fluorescent labeling after reacting with 3-azido-7-hydroxycoumarin probe", "setting": "[3]", "value": "significant fluorescent labeling"}, {"measurement": "number of cells after 3 days versus cells grown without exogenous Fuc", "setting": "[4]; 200 micromolar, 3 days", "value": "similar"}, {"measurement": "toxicity to cells (summary statement)", "setting": "[4]; at levels required for efficient labeling", "value": "much less toxic"}, {"measurement": "saturation of incorporation, incubation time", "setting": "[5]; 200 micromolar", "value": "one"}, {"measurement": "mean fluorescence intensity (MFI) compared with Fuc treated cells", "setting": "[5]; 200 micromolar, biotin probe 6/fluorescein-streptavidin", "value": 3, "unit": "fold"}, {"measurement": "dose dependency of glycan tagging", "setting": "[5]; 3 days", "value": "dose dependent increase of fluorescence signal"}, {"measurement": "fluorescence intensity / cell surface signal compared with control sugar-treated cells", "setting": "[5]; biotin probe 6/fluorescein-streptavidin", "value": "increased fluorescence intensity"}]}
